Experimental data reported in the supplement of paper PMC10307832.

Key:
Assay in all cases: relative viability (nuclei count vs DMSO), 5 days (fraction); higher = more cells survive
[1] = tested on: NCI-H2009
Outline: (§1)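 Relative viability is defined as nuclei in treated wells over nuclei in vehicle wells. Duplicate plates were run and medians reported. Lung cancer cell lines in 1536-well plates were dosed by pin tool one day after seeding, with one drug or with a fixed anchor-drug dose plus five library-drug doses (not always all listed) in √10 steps, and nuclei were counted after 5 days.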

[2] = tested on: NCI-H2023
Outline: as §1

[3] = tested on: NCI-H2347
Outline: as §1

[4] = tested on: HCC-15
Outline: as §1

[5] = tested on: HCC-44
Outline: as §1

[6] = tested on: LCLC-103H
Outline: as §1

[7] = tested on: COR-L23
Outline: as §1

[8] = tested on: HCC-827
Outline: as §1

[9] = tested on: PC-14
Outline: as §1

[10] = tested on: NCI-H2405
Outline: as §1

[11] = tested on: NCI-H1793
Outline: as §1

CCNC(=O)c1noc(-c2cc(C(C)C)c(O)cc2O)c1-c1ccc(CN2CCOCC2)cc1 [Luminespib] + N=C(N)NC(=N)NCCc1ccccc1 [Phenformin] (partner 250 µM)
relative viability ([1]; first compound 0.002 µM): 0.543
relative viability ([1]; first compound 0.006325 µM): 0.44
relative viability ([1]; first compound 0.02 µM): 0.487
relative viability ([1]; first compound 0.06325 µM): 0.0851
relative viability ([1]; first compound 0.2 µM): 0.103
relative viability ([2]; first compound 0.002 µM): 0.39
relative viability ([2]; first compound 0.006325 µM): 0.376
relative viability ([2]; first compound 0.02 µM): 0.287
relative viability ([2]; first compound 0.06325 µM): 0.0664
relative viability ([2]; first compound 0.2 µM): 0.0658
relative viability ([3]; first compound 0.002 µM): 0.406
relative viability ([3]; first compound 0.006325 µM): 0.269
relative viability ([3]; first compound 0.02 µM): 0.417
relative viability ([3]; first compound 0.06325 µM): 0.381
relative viability ([3]; first compound 0.2 µM): 0.198
relative viability ([4]; first compound 0.002 µM): 0.429
relative viability ([4]; first compound 0.006325 µM): 0.405
relative viability ([4]; first compound 0.02 µM): 0.311
relative viability ([4]; first compound 0.06325 µM): 0.162
relative viability ([4]; first compound 0.2 µM): 0.114
relative viability ([5]; first compound 0.002 µM): 0.245
relative viability ([5]; first compound 0.006325 µM): 0.163
relative viability ([5]; first compound 0.02 µM): 0.119
relative viability ([5]; first compound 0.06325 µM): 0.0759
relative viability ([5]; first compound 0.2 µM): 0.11
relative viability ([6]; first compound 0.002 µM): 0.322
relative viability ([6]; first compound 0.006325 µM): 0.361
relative viability ([6]; first compound 0.02 µM): 0.351
relative viability ([6]; first compound 0.06325 µM): 0.353
relative viability ([6]; first compound 0.2 µM): 0.188
relative viability ([7]; first compound 0.002 µM): 0.456
relative viability ([7]; first compound 0.006325 µM): 0.367
relative viability ([7]; first compound 0.02 µM): 0.457
relative viability ([7]; first compound 0.06325 µM): 0.0668
relative viability ([7]; first compound 0.2 µM): 0.0674
relative viability ([8]; first compound 0.002 µM): 0.385
relative viability ([8]; first compound 0.006325 µM): 0.384
relative viability ([8]; first compound 0.02 µM): 0.369
relative viability ([8]; first compound 0.06325 µM): 0.281
relative viability ([8]; first compound 0.2 µM): 0.141
relative viability ([9]; first compound 0.002 µM): 0.618
relative viability ([9]; first compound 0.006325 µM): 0.393
relative viability ([9]; first compound 0.02 µM): 0.196
relative viability ([9]; first compound 0.06325 µM): 0.0634
relative viability ([9]; first compound 0.2 µM): 0.0788
relative viability ([10]; first compound 0.002 µM): 0.417
relative viability ([10]; first compound 0.006325 µM): 0.314
relative viability ([10]; first compound 0.02 µM): 0.514
relative viability ([10]; first compound 0.06325 µM): 0.193
relative viability ([10]; first compound 0.2 µM): 0.196
relative viability ([11]; first compound 0.002 µM): 0.367
relative viability ([11]; first compound 0.006325 µM): 0.373
relative viability ([11]; first compound 0.02 µM): 0.151
relative viability ([11]; first compound 0.06325 µM): 0.102
relative viability ([11]; first compound 0.2 µM): 0.138
